Experimental data as given in US9289402B2, “Metal entrapped bioactive composites” (YISSUM RESEARCH DEVELOPMENT COMPANY OF THE HEBREW …, priority 2010, dated 2016).

What was measured:
[1] = system: Escherichia coli strain MG1655; assay: Bactericidal kinetic test towards E. coli MG1655; assay type: cell-based; details: HEPES buffer 0.04 M pH 7.4, 26 °C, ca. 10^6 CFU/ml, concentrations of Table 1 (composite 50.0 ppm, AgNO3 0.1 ppm, CHD 0.75 ppm)
Procedure: A wild-type Escherichia coli strain MG1655 was used as a target organism to evaluate the bactericidal efficacy of the active ingredients i.e. CHD, metallic and ionic Ag and the CHD@Ag composite. Bacteria were maintained on MacConkey agar plates at […]. Prior to each experiment, an overnight culture was prepared by seeding single colonies into 30 ml of Luria Bertani (LB) broth at 37° C. with shaking. This overnight culture was then washed three times by centrifugation (10 min, 4850 rpm, at 25° C.) and resuspended in HEPES buffer (0.04M, pH 7.4). The resulting washed pellet was resuspended in HEPES and brought to an optical density (OD590) of 0.3 which corresponds to ca. 10^8 CFU/ml. Enumeration of bacteria was performed by serial dilution and plating via the pour-plate technique. The inoculated plates were incubated at 37° C. for 24 h and bacterial concentrations were determined by enumerating the resulting CFUs. The bactericidal kinetic tests were carried out in five acid-washed 500 ml Erlenmeyer flasks filled with 200 ml HEPES buffer. The flasks were capped with dense paper caps to allow oxygen supply. Typically, the active ingredients at the desired concentrations and combinations were added first and then 2.0 ml of the E. coli suspension was added to final concentration of ca. 10^6 CFU/ml. The active ingredients included one of the following: CHD@Ag composite, MeOH-extracted composite, AgNO3 solution, CHD solution and combinations thereof in final concentrations and the amounts which are summarized in Table 1. [table] The vessels were kept in an incubated shaker at 26° C. under dark conditions. The disinfection kinetics were followed by sequentially sampling 1.0 ml aliquots form the vessels at the designated times. These samples were neutralized by dilution (1:1) with a neutralizing solution (0.2% w/w sodium thioglycolate, 1.9% w/w sodium thiosulphate, 1% w/w Tween 80, 1.4% w/w lecithin) for 5 min. The efficiency of this neutralization procedure was validated in separate control experiments. […] The plates were incubated at 37° C. for 24 h and bacterial colonies were counted. […]

P. aeruginosa PU21 = assay: Bactericidal kinetic test towards P. aeruginosa PU21; assay type: cell-based, Pseudomonas aeruginosa; details: FIG. 8

Row | Structure (SMILES) | biocidal activity towards E. coli MG1655 [1] | biocidal activity towards E. coli MG1655 ([1]; listed as CHD solution) | bactericidal effect towards P. aeruginosa PU21 (P. aeruginosa PU21)
1 | O=[N+]([O-])[O-].[Ag+] [Ag^+, AgNO3] | no biocidal activity |  | 
2 | N=C(NCCCCCCNC(=N)NC(=N)Nc1ccc(Cl)cc1)NC(=N)Nc1ccc(Cl)cc1.O=C(O)[C@H](O)[C@@H](O)[C@H](O)[C@H](O)CO.O=C(O)[C@H](O)[C@@H](O)[C@H](O)[C@H](O)CO [CHD, Chlorhexidine digluconate] | only slightly affected | only very weak biocidal activity | weak bactericidal effect
